# Test: recombinant UMI read abundance after kanamycin selection (control-corrected) (log10(CPM+1)); higher = more efficient recombination; extreme values may be limits of the assay; sequences stand for … in AGTGCAGAGAAAATCGGCCAGTTTTCTCTGCCTGCAGTCCGCATGCCGTGGGACCCCTTGGGTTCTAACCTGTTGCCTAGATTTATGCAGCGGACTGCCTTTCTCCCAAAGTGATAAACCGG…AGGTTGGTTTCACT; site = the 11-nt donor
# Procedure, shortened: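 In a pooled Escherichia coli screen for the IS621 bridge recombinase, donor and donor-binding-loop pairs were each placed with a 12-nt UMI on a plasmid bearing a promoterless kanamycin gene. This library was co-electroporated with a target plasmid encoding a fixed target and T7-inducible recombinase, and cells were plated either on IPTG (0.07 mM) plus kanamycin or without selection, in two replicates each. Recombinant UMIs were PCR-amplified across the donor–target junction and sequenced, and counts were converted to CPM, averaged over replicates, scaled by control-derived factors and reported as log10(CPM+1).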
row,Sequence,recombinant UMI read abundance (log10)
1,CGATCGACATGGACCGGTTTTCCCGGTAATCCGTATTTGCT (site CGATCGACTAC),0.00923
2,CGATCGACATGGACCGGTTTTCCCGGTAATCCGTATTTGCT (site CGATCGACTAG),2.63
3,CGATCGACATGGACCGGTTTTCCCGGTAATCCGTATTTGCT (site CGATCGACTAT),0.0395
4,CGATCGACATGGACCGGTTTTCCCGGTAATCCGTATTTGTC (site CGATCGACTAA),0.00466
5,CGATCGACATGGACCGGTTTTCCCGGTAATCCGTATTTGTC (site CGATCGACTCA),0
6,CGATCGACATGGACCGGTTTTCCCGGTAATCCGTATTTGTC (site CGATCGACTGA),1.08
7,CGATCGACATGGACCGGTTTTCCCGGTAATCCGTATTTGTC (site CGATCGACTTA),0
8,CGATCGGCATGGACCGGTTTTCCCGGTAATCCGTATTTGAA (site CGATCGGCTTT),1.25
9,CGATCGTCATGGACCGGTTTTCCCGGTAATCCGTATTTGTT (site CGATCGACTAA),0.00634
10,CGATCGTCATGGACCGGTTTTCCCGGTAATCCGTATTTGTT (site CGATCGCCTAA),0.0131
11,CGATCGTCATGGACCGGTTTTCCCGGTAATCCGTATTTGTT (site CGATCGGCTAA),0.0205
12,CGATCGTCATGGACCGGTTTTCCCGGTAATCCGTATTTGTT (site CGATCGTCTAA),1.25
13,CGATCTCCATGGACCGGTTTTCCCGGTAATCCGTATTTGCT (site CGATCTCCTAG),0
14,CGATCTTCATGGACCGGTTTTCCCGGTAATCCGTATTTGTT (site CGATCATCTAG),0
15,CGATCTTCATGGACCGGTTTTCCCGGTAATCCGTATTTGTT (site CGATCTTCTAA),0.751
16,CGATGATCATGGACCGGTTTTCCCGGTAATCCGTATTTGCT (site CGATAATCTAG),2.33
17,CGATGATCATGGACCGGTTTTCCCGGTAATCCGTATTTGCT (site CGATCATCTAG),0.00821
18,CGATGATCATGGACCGGTTTTCCCGGTAATCCGTATTTGCT (site CGATGATCTAG),2.46
19,CGATGATCATGGACCGGTTTTCCCGGTAATCCGTATTTGCT (site CGATTATCTAG),0.958
20,CGATGGACATGGACCGGTTTTCCCGGTAATCCGTATTTGTT (site CGATAGACTAA),1.25
21,CGATGGACATGGACCGGTTTTCCCGGTAATCCGTATTTGTT (site CGATCGACTAA),0.00844
22,CGATGGACATGGACCGGTTTTCCCGGTAATCCGTATTTGTT (site CGATGGACTAA),1.97
23,CGATGGACATGGACCGGTTTTCCCGGTAATCCGTATTTGTT (site CGATTGACTAA),0.00606
24,CGATGGTCATGGACCGGTTTTCCCGGTAATCCGTATTTGCT (site CGATCATCTAG),0
25,CGATGGTCATGGACCGGTTTTCCCGGTAATCCGTATTTGCT (site CGATGGTCTAG),2.8

row,Sequence,recombinant UMI read abundance (log10)
1,CGATTGGCATGGACCGGTTTTCCCGGTAATCCGTATTTGCA (site CGATTGGCTTG),2.02
2,CGCAATCCATGGACCGGTTTTCCCGGTAATCCGTATTTGTG (site CGCAATCCTCA),0.631
3,CGCAATCCATGGACCGGTTTTCCCGGTAATCCGTATTTGTG (site CGGAATCCTAA),0
4,CGCAATGCATGGACCGGTTTTCCCGGTAATCCGTATTTGTT (site CGCAATGCTAA),2.14
5,CGCAATGCATGGACCGGTTTTCCCGGTAATCCGTATTTGTT (site CGGAATCCTAA),0
6,CGCAGCACATGGACCGGTTTTCCCGGTAATCCGTATTTGAC (site CGCAGCACTGT),2.95
7,CGCAGGCCATGGACCGGTTTTCCCGGTAATCCGTATTTGGG (site CGCAGGCCTCC),0
8,CGCAGTACATGGACCGGTTTTCCCGGTAATCCGTATTTGCG (site CGCAGTACTCG),0.962
9,CGCATACCATGGACCGGTTTTCCCGGTAATCCGTATTTGAC (site CGCATACCTGT),0
10,CGCATAGCATGGACCGGTTTTCCCGGTAATCCGTATTTGTA (site CGCATAGCTTA),2.51
11,CGCATTACATGGACCGGTTTTCCCGGTAATCCGTATTTGGC (site CGCATTACTGC),1.28
12,CGCCCGGCATGGACCGGTTTTCCCGGTAATCCGTATTTGGT (site CGCCCGGCTAC),1.31
13,CGCCCTCCATGGACCGGTTTTCCCGGTAATCCGTATTTGTT (site CGCCCTCCTAA),1.24
14,CGCCGAACATGGACCGGTTTTCCCGGTAATCCGTATTTGCT (site CGCCGAACTAG),2.15
15,CGCCGAACATGGACCGGTTTTCCCGGTAATCCGTATTTGCT (site CGCCGCACTAG),0.0174
16,CGCCGAACATGGACCGGTTTTCCCGGTAATCCGTATTTGCT (site CGCCGGACTAG),0.95
17,CGCCGAACATGGACCGGTTTTCCCGGTAATCCGTATTTGCT (site CGCCGTACTAG),0.00823
18,CGCCGGGCATGGACCGGTTTTCCCGGTAATCCGTATTTGAC (site CGCCGGGCTGT),1.46
19,CGCCGTACATGGACCGGTTTTCCCGGTAATCCGTATTTGAT (site CGCCGTACTAA),0.00486
20,CGCCGTACATGGACCGGTTTTCCCGGTAATCCGTATTTGAT (site CGCCGTACTAC),0.0168
21,CGCCGTACATGGACCGGTTTTCCCGGTAATCCGTATTTGAT (site CGCCGTACTAG),0
22,CGCCGTACATGGACCGGTTTTCCCGGTAATCCGTATTTGAT (site CGCCGTACTAT),1.37
23,CGCCGTACATGGACCGGTTTTCCCGGTAATCCGTATTTGCC (site CGCCGTACTAG),0.256
24,CGCCGTACATGGACCGGTTTTCCCGGTAATCCGTATTTGCC (site CGCCGTACTCG),0.114
25,CGCCGTACATGGACCGGTTTTCCCGGTAATCCGTATTTGCC (site CGCCGTACTGG),1.55

row,Sequence,recombinant UMI read abundance (log10)
1,CGCCGTACATGGACCGGTTTTCCCGGTAATCCGTATTTGCC (site CGCCGTACTTG),0.384
2,CGCCGTCCATGGACCGGTTTTCCCGGTAATCCGTATTTGCT (site CGCCGTACTAG),0.0123
3,CGCCGTCCATGGACCGGTTTTCCCGGTAATCCGTATTTGCT (site CGCCGTCCTAG),0.666
4,CGCCGTCCATGGACCGGTTTTCCCGGTAATCCGTATTTGCT (site CGCCGTGCTAG),0
5,CGCCGTCCATGGACCGGTTTTCCCGGTAATCCGTATTTGCT (site CGCCGTTCTAG),0.012
6,CGCCTAGCATGGACCGGTTTTCCCGGTAATCCGTATTTGTC (site TTGAATACTAG),0
7,CGCCTATCATGGACCGGTTTTCCCGGTAATCCGTATTTGGC (site CGCCTATCTGC),1.93
8,CGCCTTACATGGACCGGTTTTCCCGGTAATCCGTATTTGCT (site CGCCATACTAG),0.00361
9,CGCCTTACATGGACCGGTTTTCCCGGTAATCCGTATTTGCT (site CGCCCTACTAG),0.675
10,CGCCTTACATGGACCGGTTTTCCCGGTAATCCGTATTTGCT (site CGCCGTACTAG),0
11,CGCCTTACATGGACCGGTTTTCCCGGTAATCCGTATTTGCT (site CGCCTTACTAG),1.57
12,CGCCTTTCATGGACCGGTTTTCCCGGTAATCCGTATTTGAC (site AGCCTTTCTGT),0
13,CGCCTTTCATGGACCGGTTTTCCCGGTAATCCGTATTTGAC (site CGCCTTTCTGT),0
14,CGCCTTTCATGGACCGGTTTTCCCGGTAATCCGTATTTGAC (site GGCCTTTCTGT),0
15,CGCCTTTCATGGACCGGTTTTCCCGGTAATCCGTATTTGAC (site TGCCTTTCTGT),0
16,CGCGAGCCATGGACCGGTTTTCCCGGTAATCCGTATTTGGA (site CGCGAGCCTTC),0.181
17,CGCGCTCCATGGACCGGTTTTCCCGGTAATCCGTATTTGTC (site CGCGCTCCTGA),1.94
18,CGCGGACCATGGACCGGTTTTCCCGGTAATCCGTATTTGGG (site CGAGGACCTCC),0.0232
19,CGCGGACCATGGACCGGTTTTCCCGGTAATCCGTATTTGGG (site CGCGGACCTCC),0
20,CGCGGACCATGGACCGGTTTTCCCGGTAATCCGTATTTGGG (site CGGGGACCTCC),0.0209
21,CGCGGACCATGGACCGGTTTTCCCGGTAATCCGTATTTGGG (site CGTGGACCTCC),0.0246
22,CGCGGCACATGGACCGGTTTTCCCGGTAATCCGTATTTGTA (site CGCGGCACTTA),1.66
23,CGCGTCTCATGGACCGGTTTTCCCGGTAATCCGTATTTGTA (site CGCGTCTCTTA),3.26
24,CGCTAATCATGGACCGGTTTTCCCGGTAATCCGTATTTGGG (site CGCTAATCTCC),1.5
25,CGCTACTCATGGACCGGTTTTCCCGGTAATCCGTATTTGCT (site CGCTACTCTAG),2.85

# Reference: the supplement of paper PMC11208160
